From patent publication US6593324B2, “Dervatives of quinoline as alpha-2 antagonists” (Orion Corporation, priority 2000, dated 2003)

How the values were obtained:
male NMRI mice = assay: Antagonism of dexmedetomidine-induced locomotor inhibition; assay type: in vivo; details: various doses 20 min before dexmedetomidine 50 nmol/kg s.c.; activity measured 20 min after; atipamezole effective at 0.3 and 1.0 μmol/kg s.c. (p<0.01); FIG. 1
Excerpt: Dexmedetomidine and atipamezole are very potent and specific alpha-2 adrenoceptor agonists and antagonists, respectively, which lack alpha-2 subtype selectivity (H. Scheinin et al., European Journal of Pharmacology, Molecular Section, vol.151(1), 1988, p.35-42). The alpha-2 agonist-induced sedation is known to be an alpha-2A-mediated phenomenon that can be antagonised by alpha-2 antagonists (J. Sallinen et al., Mol. Pharmacol. Vol.51, 1997, p.36-46, and A. Haapalinna et al., Naunyn-Schimiedeberg's Arch. Pharmacol. Vol.356, 1997, p.570-582). The sedative effect of alpha-2 agonists in mice is measured by the inhibition on locomotor activity. Therefore, we compared the ability of Compound I and atipamezole to antagonise the dexmedetomidine-induced locomotor inhibition to evaluate the in vivo alpha-2A adrenoceptor antagonism (and alpha-2C selectivity) of these compounds.
Spontaneous locomotor activity of a total of 76 male NMRI mice (B&K, Sweden) was measured by placing individual animals into a polypropylene animal cage (38×22×15 cm). The cages were surrounded with an infrared photobeam frame system designed for activity measurements (Photobeam Activity System PAS, Cage Rack, San Diego Instruments, San Diego, Calif., USA). […] Spontaneous locomotor activity was measured 20 min after dexmedetomidine injection.

test animals = details: literature report; cited from earlier work
Balb/c mice = assay: Mouse forced swimming test; assay type: in vivo; details: 0.3 μmol/kg 40 min before test; activity between 2 and 6 min; Compound 1 p=0.013, atipamezole p=0.52; FIG. 2
Excerpt: This can be observed for example employing the forced swimming test, in which a rat or mouse is put into a water-filled cylinder. After a vigorous period of attempts to escape animals adopt an immobile floating posture; the extent of the immobile period is monitored and can be reduced by antidepressants and stress-protective agents. Transgenic mice that lack functional alpha-2C adrenoceptor tolerated swim-stress better than their similarly treated wild-type controls (J. Sallinen et al., Mol. Psychiatry, vol.4, 1999, p.443-452). Therefore, an increase in the forced swimming activity can be used as a measure of in vivo alpha-2C selective antagonism of a compound.
The forced swim test was conducted as originally described employing the stress sensitive (J. Crawley and L. Davis, Brain Research Bulletin, vol.8, 1982, p.609-612, and U.S. Pat. No. 5,902,807) Balb/c mouse strain (B&K, Sweden). The mice were administered either with vehicle (0.1% DMSO, 5 ml/kg subcutaneously), Compound 10.3 μmol/kg, or atipamezole 0.3 μmol/kg 40 min before putting the mice into a vessel (10 cm diameter, 18.5 cm height, filled with 25° C. water up to 8 cm height). The cumulative activity of each mouse was measured between 2 and 6 min after introduction to the vessel. Only vigorous attempts to escape (climbing) were registered. The mice (a total of 96) were tested only once.

brain = details: employed doses of atipamezole; literature report; cited from earlier work

| Compound | antagonism of dexmedetomidine-induced sedation (locomotor inhibition) (male NMRI mice) | stress-protective effect (test animals) | stress-protective effect: forced swimming activity (climbing) vs vehicle (Balb/c mice) | neurochemical effect: noradrenaline release in brain (brain) |
| --- | --- | --- | --- | --- |
| CCC1(c2cnc[nH]2)Cc2ccccc2C1 [atipamezole] | inhibited dexmedetomidine-induced sedation | did not have a clear stress-protective effect | did not have any clear effect on the activity | stimulate noradrenaline release in brain |
| CN1CCN(c2ccc(Nc3c4ccccc4nc4ccccc34)cc2)CC1 [Compound 1, Acridin-9-yl-[4-(4-methylpiperazin-1-yl)-phenyl]amine] | did not antagonise the alpha-2-agonist-induced sedation at all | – | tolerated clearly better stress-induced propagation of behavioural despair | – |
